This note sets out measurements from patent US20080269213A1, “8-Hydroxyquinoline compounds and methods thereof” (Wyeth, priority 2006, published 2008).

Several values for one entry are separate records, joined by “and”; a condition that tells them apart may be missing. Equal entries are not always repeated.

Broadly, the IC50 is the point on the concentration scale where inhibition reaches its midpoint.

In one test the target is T1, recombinant human Aggrecanase-2 Agg2-Phe628 (Homo sapiens, UniProt Q9UNA0).
T1 sequence (Q9UNA0 262-628 limits assumed): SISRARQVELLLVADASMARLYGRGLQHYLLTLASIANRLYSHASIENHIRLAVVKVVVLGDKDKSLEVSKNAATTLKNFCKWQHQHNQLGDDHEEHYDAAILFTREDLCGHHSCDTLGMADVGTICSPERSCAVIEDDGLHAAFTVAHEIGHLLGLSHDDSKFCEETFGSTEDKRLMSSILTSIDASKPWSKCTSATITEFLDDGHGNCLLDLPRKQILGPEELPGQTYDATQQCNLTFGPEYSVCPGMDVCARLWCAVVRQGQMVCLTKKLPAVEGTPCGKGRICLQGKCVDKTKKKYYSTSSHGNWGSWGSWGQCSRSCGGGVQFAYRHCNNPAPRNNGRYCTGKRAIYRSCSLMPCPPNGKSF
Kind of test: Aggrecanase 2 in vitro enzyme assay (Agg-2 FRET, quenched fluorescent peptide substrate). Details: purified recombinant human Aggrecanase-2 Agg2-Phe628 (MW=41,737); This is a truncated form of full-length human aggrecanase-2; made in house; host or cells: CHO cells. The format is biochemical. Particulars: concentration not given. How it is done: A continuous assay was used in which the substrate was a synthetic peptide containing a fluorescent group (o-aminobenzyl, Abz), which was quenched by energy transfer to a 2,4-dinitrophenyl group (Dnp). The buffer used in this assay was 50 mM HEPES, pH 7.5, 100 mM NaCl, 5 mM CaCl2, 0.1% CHAPS, 5% glycerol. The source of enzyme was purified recombinant human Aggrecanase-2 Agg2-Phe628 (MW=41,737). This is a truncated form of full-length human aggrecanase-2 that was expressed in CHO cells and purified. The final concentration of Agg2-Phe628 was 0.5 μg/ml. […] It is a synthetic peptide that is designed after a portion of brevican, one of the naturally occurring substrates of Aggrecanase-2, of the sequence Abz-[…]-Dap(Dnp)-KK—NH2 (mass=1740). The concentration of this substrate stock was spectrophotometrically determined using the extinction coefficient at 354 nm of 18,172 M^−1cm^−1. […] The final concentration of substrate in the assay was 25 μM.
Test compounds (in duplicate) were serially diluted from 2 mM to 0.01 μM in 100% DMSO. The total reaction volume was 100 μl. The buffer and enzyme were added first followed by addition of 10× inhibitor from the dilution plate. Enzyme and buffer alone samples were included in order to obtain the maximal rate of substrate cleavage. […] Then substrate was added, mixed and the reaction monitored for 40 min at 30° C. in kinetic mode using λex: 340 nm and % λem: 420 (GeminiXS Molecular Devices).
With `CC(=O)NC(c1ccccc1)c1ccc2cccnc2c1O` (stereo not drawn) [N-[(8-hydroxyquinolin-7-yl)(phenyl)methyl]acetamide], the “Agg-2 FRET Median PCT INHIB” value is reported as 50%.

`O=C(CCc1ccccc1)NC(c1ccccc1)c1cc(Cl)c2cccnc2c1O` (stereo not drawn) [N-[(5-chloro-8-hydroxyquinolin-7-yl)(phenyl)methyl]-3-phenylpropanamide]: the “Agg-2 FRET Median PCT INHIB” value was found to be 23%.

As for `O=C(COc1ccc(Oc2ccccc2)cc1)NC(c1ccccc1)c1cc(Cl)c2cccnc2c1O` (stereo not drawn) [Example 85, N-[(5-chloro-8-hydoxyquinolin-7-yl)(phenyl)methyl]-2-(4-phenoxyphenoxy)acetamide], the “Agg-2 FRET Median PCT INHIB” value was 50%.

Turning to `Cc1ccc(C(NC(=O)CNc2ccc(C(C)(C)C)cc2)c2cc(Cl)c3cccnc3c2O)cc1` (stereo not drawn) [Example 27, N^2-(4-tert-butylphenyl)-N^1-[(5-chloro-8-hydroxyquinolin-7-yl)(4-methylphenyl)methyl]glycinamide], the “Agg-2 FRET Median PCT INHIB” value is 57%.

The same test, now with this note: read-out: Agg2 IC50.
Turning to `O=C(CCc1ccccc1)NC(c1ccccc1)c1cc(Cl)c2cccnc2c1O` (stereo not drawn) [N-[(5-chloro-8-hydroxyquinolin-7-yl)(phenyl)methyl]-3-phenylpropanamide], the concentration for half-maximal inhibition (IC50) was greater than 5 µM.

The same test, now with this note: read-out: Agg-2 FRET Median IC50.
With `O=C(COc1ccccc1)NC(c1ccc(O)cc1Cl)c1cc(Cl)c2cccnc2c1O` (stereo not drawn) [N-[(2-chloro-4-hydroxyphenyl)(5-chloro-8-hydroxyquinolin-7-yl)methyl]-2-phenoxyacetamide], the 50% inhibitory concentration (IC50) worked out at 1.94 µM.

In the case of `O=C(CNCc1ccccc1)NC(c1cccc([N+](=O)[O-])c1)c1cc(Cl)c2cccnc2c1O` (stereo not drawn) [Example 64, N^2-benzyl-N^1-[(5-chloro-8-hydroxyquinolin-7-yl)(3-nitrophenyl)methyl]glycinamide], the half-inhibitory concentration (IC50) was determined as 0.765 µM.

On to `COc1ccc(C(NC(=O)COc2ccc(C)cc2)c2ccc3cccnc3c2O)cc1` (stereo not drawn) [N-[(8-hydroxyquinolin-7-yl)(4-methoxyphenyl)methyl]-2-(4-methylphenoxy)acetamide], for which the IC50 was 2.83 µM.

With `CC(=O)Nc1ccc(NCC(=O)NC(c2cccc([N+](=O)[O-])c2)c2cc(Cl)c3cccnc3c2O)cc1` (stereo not drawn) [Example 31, N^2-[4-(acetylamino)phenyl]-N^1-[(5-chloro-8-hydroxyquinolin-7-yl)(3-nitrophenyl)methyl]glycinamide], the IC50 came out at 2.77 µM.

`COc1ccc(OCC(=O)NC(c2ccccc2)c2cc(Cl)c3cccnc3c2O)cc1` (stereo not drawn) [N-[(5-chloro-8-hydroxyquinolin-7-yl)(phenyl)methyl]-2-(4-methoxyphenoxy)acetamide]: the IC50 stood at 1.38 µM.

For the compound `COc1cc(OC)cc(C(NC(=O)COc2ccccc2)c2cc(Cl)c3cccnc3c2O)c1` (stereo not drawn) [N-[(5-chloro-8-hydroxyquinolin-7-yl)(3,5-dimethoxyphenyl)methyl]-2-phenoxyacetamide], the IC50 is 1.09 µM.

For `COc1ccc(C(NC(=O)COc2ccccc2)c2ccc3cccnc3c2O)cc1` (stereo not drawn) [N-[(8-hydroxyquinolin-7-yl)(4-methoxyphenyl)methyl]-2-phenoxyacetamide], the IC50 stood at 4.41 µM.

In the case of `Cc1ccc(C(NC(=O)CNc2cccnc2)c2cc(Cl)c3cccnc3c2O)cc1` (stereo not drawn) [Example 22, N^1-[(5-chloro-8-hydroxyquinolin-7-yl)(4-methylphenyl)methyl]-N^2-pyridin-3-ylglycinamide], the IC50 is 9.79 µM.

For `Cc1ccccc1C(NC(=O)COc1ccccc1)c1cc([N+](=O)[O-])c2cccnc2c1O` (stereo not drawn) [N-[(8-hydroxy-5-nitroquinolin-7-yl)(2-methylphenyl)methyl]-2-phenoxyacetamide], the IC50 is 0.854 µM.

Turning to `O=C(COc1ccccc1)NC(c1ccc(Cl)c(Cl)c1)c1cc(Cl)c2cccnc2c1O` (stereo not drawn) [N-[(5-chloro-8-hydroxyquinolin-7-yl)(3,4-dichlorophenyl)methyl]-2-phenoxyacetamide], the IC50 came out at 1.36 µM.

`Cc1ccc(C(NC(=O)CNCc2ccccc2)c2cc(Cl)c3cccnc3c2O)cc1` (stereo not drawn) [Example 60, N^2-benzyl-N^1-[(5-chloro-8-hydroxyquinolin-7-yl)(4-methylphenyl)methyl]glycinamide]: the IC50 amounted to 1.83 µM.

Take `Cc1ccccc1C(NC(=O)COc1ccccc1)c1cc(C)c2cccnc2c1O` (stereo not drawn) [N-[(8-hydroxy-5-methylquinolin-7-yl)(2-methylphenyl)methyl]-2-phenoxyacetamide]: the IC50 was 3.51 µM.

For `O=C(NC(c1ccccc1)c1ccc2cccnc2c1O)c1ccccc1` (stereo not drawn) [N-[(8-hydroxyquinolin-7-yl)(phenyl)methyl]benzamide], the half-maximal inhibitory concentration (IC50) was 4.7 µM and 5.47 µM.

Consider `CC(=O)c1ccc(NCC(=O)NC(c2ccc(C)cc2)c2cc(Cl)c3cccnc3c2O)cc1` (stereo not drawn) [Example 24, N^2-(4-acetylphenyl)-N^1-[(5-chloro-8-hydroxyquinolin-7-yl)(4-methylphenyl)methyl]glycinamide], for which the 50% inhibitory concentration (IC50) was determined as 1.12 µM.

With `CN(C)c1ccc(C(NC(=O)COc2ccccc2)c2ccc3cccnc3c2O)cc1` (stereo not drawn) [Example 99, N-[[4-(dimethylamino)phenyl](8-hydroxyquinolin-7-yl)methyl]-2-phenoxyacetamide], the IC50 was 5.54 µM.

For `O=C(COc1ccccc1)NC(c1ccc(Cl)cc1)c1ccc2cccnc2c1O` (stereo not drawn) [N-[(4-chlorophenyl)(8-hydroxyquinolin-7-yl)methyl]-2-phenoxyacetamide], the IC50 was determined as 3.38 µM.

As to `O=C(CCCc1ccccc1)NC(c1cccc([N+](=O)[O-])c1)c1cc(Cl)c2cccnc2c1O` (stereo not drawn) [N-[(5-chloro-8-hydroxyquinolin-7-yl)(3-nitrophenyl)methyl]-4-phenylbutanamide], the IC50 worked out at 1.15 µM.

For `O=C(COc1ccccc1)NC(c1ccc(F)c(Cl)c1)c1cc(Cl)c2cccnc2c1O` (stereo not drawn) [N-[(3-chloro-4-fluorophenyl)(5-chloro-8-hydroxyquinolin-7-yl)methyl]-2-phenoxyacetamide], the IC50 was 1.04 µM.

`Cc1cc(NCC(=O)NC(c2ccccc2Cl)c2cc(Cl)c3cccnc3c2O)ccc1Cl` (stereo not drawn) [Example 19, N^1-[(5-chloro-8-hydroxyquinolin-7-yl)(2-chlorophenyl)methyl]-N^2-(4-chloro-3-methylphenyl)glycinamide]: the IC50 was 1.48 µM.

Consider `Cc1ccc(C)c(C(NC(=O)COc2ccccc2)c2cc(Cl)c3cccnc3c2O)c1` (stereo not drawn) [Example 37, N-[(5-chloro-8-hydroxyquinolin-7-yl)(2,5-dimethylphenyl)methyl]-2-phenoxyacetamide], for which the half-inhibitory concentration (IC50) was found to be 1.49 µM.

Turning to `O=C(COc1ccc(Oc2ccccc2)cc1)NC(c1ccccc1)c1ccc2cccnc2c1O` (stereo not drawn) [N-[(8-hydroxyquinolin-7-yl)(phenyl)methyl]-2-(4-phenoxyphenoxy)acetamide], the half-maximal inhibitory concentration (IC50) stood at 0.908 µM.

For the compound `O=C(CNc1cccnc1)NC(c1cccc(F)c1)c1cc(Cl)c2cccnc2c1O` (stereo not drawn) [Example 32, N^1-[(5-chloro-8-hydroxyquinolin-7-yl)(3-fluorophenyl)methyl]-N^2-pyridin-3-ylglycinamide], the IC50 was determined as 15.1 µM.

For the compound `CC(=O)NC(c1ccccc1)c1cc(Cl)c2cccnc2c1O` (stereo not drawn) [N-[(5-chloro-8-hydroxyquinolin-7-yl)(phenyl)methyl]acetamide], the IC50 turned out to be 19.7 µM.

On to `CN(CC(=O)NC(c1ccccc1Cl)c1cc(Cl)c2cccnc2c1O)Cc1ccccc1` (stereo not drawn) [Example 52, N^2-benzyl-N^1-[(5-chloro-8-hydroxyquinolin-7-yl)(2-chlorophenyl)methyl]-N^2-methylglycinamide], for which the half-inhibitory concentration (IC50) was 1.31 µM.

The same test, now with this note: ~600-1800 nM.
Turning to `COc1cc(OC)cc(OCC(=O)NC(c2ccccc2)c2cc(Cl)c3cccnc3c2O)c1` (stereo not drawn) [N-[(5-chloro-8-hydroxyquinolin-7-yl)(phenyl)methyl]-2-(3,5-dimethoxyphenoxy)acetamide], the “Agg2 % inh” value turned out to be 50% inh ~600-1800.
